# Test results as given in publication PMC7051184, “C9orf72 arginine-rich dipeptide repeat proteins disrupt karyopherin-mediated nuclear import” (eLife, 2020).
# Where a SMILES comes first, the peptide text is derived from it.
# Experiments:
# Type in all cases: biochemical, human
# [1] = test system: transportin-1 (Tnpo1); assay: DPR aggregation assay and western blot, Tnpo1; conditions: for Tnpo1 band density, Pellet / Tnpo1 band density, Supernatant: 100 µM 10mer in 2.5 mg/ml HEK lysate, normalized to untreated HEK; for TNPO1 band density, % untr control: Fig 5-suppl 3C, normalized to untreated HEK on same membrane;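 as to TNPO1 band density, % untr control: RNA rows contain added 20 µg total HEK RNA while no-RNA rows lack it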
# Protocol: (§1) Supernatant and pellet fractions (for all 5 DPRs, and control/buffer only) were prepared as in the nuclear transport assays, by adding 100 µM 10mers to 2.5 mg/ml HEK lysate in 100 µL TRB. Supernatants were boiled in Laemmli (BioRad) for 5 min. Pellets were boiled for 15 min followed by sonication in order to fully disperse aggregates for SDS-PAGE. Equal volumes of supernatant and pellet fractions were run on 4–12% Bolt Bis-Tris Plus gels (ThermoFisher), transferred to nitrocellulose membrane using an iBlot2 dry blotting system (ThermoFisher). Protein loading was analyzed by BLOT-Faststain (G-biosciences, St. Louis, MO), according to the manufacterers’ instructions. For immunodetection, membranes were blocked with 5% non-fat milk in TBST and probed by sequential incubation with the primary antibodies as detailed in the table below. Detection was by HRP-conjugated secondary antibodies/chemiluminescence using an ImageQuant LAS 4000 system (GE, Chicago, IL). To permit sequential probing of membranes without stripping, signals were quenched by incubation with prewarmed 30% H20_2 for 20 min ([Sennepin et al., 2009]). Band intensities were measured by ImageQuant software. For pellet vs. supernatant fractions, all were expressed as percent untreated control. For blots in Figure 1E, samples were run on 4–20% SDS PAGE minigels (ThermoFisher) and blotted to PVDF membranes (Immun-Blot PVDF, Bio-Rad) using the Bio-Rad TransBlot Turbo apparatus, and probed as above. The chemiluminescence signal was captured with a Bio-Rad ChemiDoc XRS+ digital imaging system.
# [2] = test system: importin β; assay: DPR aggregation assay and western blot, ImpB; conditions: for ImpB band density, Pellet / ImpB band density, Supernatant: 100 µM 10mer in 2.5 mg/ml HEK lysate, normalized to untreated HEK; for ImpB band density, % untr control: Fig 5-suppl 3C, normalized to untreated HEK on same membrane;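 as to ImpB band density, % untr control: RNA rows contain added 20 µg total HEK RNA while no-RNA rows lack it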
# Protocol: as §1
# [3] = test system: RanGAP1; assay: DPR aggregation assay and western blot, RanGAP1; conditions: for RanGAP1 band density, Pellet / RanGAP1 band density, Supernatant: 100 µM 10mer in 2.5 mg/ml HEK lysate, normalized to untreated HEK; for RanGAP1 band density, % untr control: Fig 5-suppl 3C, normalized to untreated HEK on same membrane
# Protocol: as §1
# [4] = test system: TDP-43; assay: DPR aggregation assay and western blot, TDP-43; conditions: for TDP43 band density, % untr control: Fig 5-suppl 3C, normalized to untreated HEK on same membrane; for TDP43 band density, % control: normalized to untreated HEK cells on the same membrane
# Protocol: as §1
# [5] = test system: Matrin-3; assay: DPR aggregation assay and western blot, Matrin-3; conditions: normalized to untreated HEK cells on the same membrane
# Protocol: as §1
# [6] = test system: RPS6; assay: DPR aggregation assay and western blot, RPS6; conditions: for Rps6 band density, % untr control: Fig 5-suppl 3C, normalized to untreated HEK on same membrane; for RPS6 band density, % control: normalized to untreated HEK cells on the same membrane;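 as to Rps6 band density, % untr control: RNA rows contain added 20 µg total HEK RNA while no-RNA rows lack it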
# Protocol: as §1
# [7] = DPR aggregate formation in HEK lysate (pellet vs. supernatant, total protein); conditions: 100 µM
# Protocol: as §1, with “For blots in Figure 1E, samples were run on 4–20% SDS PAGE minigels (ThermoFisher) and blotted to PVDF membranes (Immun-Blot PVDF, Bio-Rad) using the Bio-Rad TransBlot Turbo apparatus, and probed as above. The chemiluminescence signal was captured with a Bio-Rad ChemiDoc XRS+ digital imaging system.” left out
# [8] = test system: Rps25; assay: DPR aggregation assay and western blot, Rps25; conditions: Fig 5-suppl 3C, normalized to untreated HEK on same membrane;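 also: RNA rows contain added 20 µg total HEK RNA while no-RNA rows lack it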
# Source text: Supplement elife-51685-fig5-data1.xlsx, sheet "Figure 5-figure suppl 3" | column: Rps25
# [9] = Pellet, no RNA (Untreated), blot 1
# [10] = Pellet, no RNA (Untreated), blot 2
# [11] = Supernatant, no RNA (Untreated), blot 1
# [12] = Supernatant, no RNA (Untreated), blot 2
structure (smiles),measurement,setting,value
N=C(N)NCCC[C@H](NC(=O)[C@@H]1CCCN1C(=O)[C@H](CCCNC(=N)N)NC(=O)[C@@H]1CCCN1C(=O)[C@H](CCCNC(=N)N)NC(=O)[C@@H]1CCCN1C(=O)[C@H](CCCNC(=N)N)NC(=O)[C@@H]1CCCN1C(=O)[C@H](CCCNC(=N)N)NC(=O)[C@@H]1CCCN1C(=O)[C@H](CCCNC(=N)N)NC(=O)[C@@H]1CCCN1C(=O)[C@H](CCCNC(=N)N)NC(=O)[C@@H]1CCCN1C(=O)[C@H](CCCNC(=N)N)NC(=O)[C@@H]1CCCN1C(=O)[C@H](CCCNC(=N)N)NC(=O)[C@@H]1CCCN1C(=O)[C@H](CCCNC(=N)N)NC(=O)[C@@H]1CCCN1)C(=O)O [PR10] (H-PRPRPRPRPRPRPRPRPRPR-OH; N-terminus and C-terminus assumed),"Tnpo1 band density, Pellet",[1]; Blot 1,258.1 % control
same,"Tnpo1 band density, Supernatant",[1]; Blot 1,76.9 % control
same,"Tnpo1 band density, Pellet",[1]; Blot 2,476.3 % control
same,"Tnpo1 band density, Supernatant",[1]; Blot 2,65.0 % control
same,"TNPO1 band density, % untr control","[1]; Pellet, RNA, blot 1",162.49%
same,"TNPO1 band density, % untr control","[1]; Pellet, RNA, blot 2",169.58%
same,"TNPO1 band density, % untr control",[1]; [9],284.53%
same,"TNPO1 band density, % untr control",[1]; [10],326.13%
same,"TNPO1 band density, % untr control","[1]; Supernatant, RNA, blot 1",75.09%
same,"TNPO1 band density, % untr control","[1]; Supernatant, RNA, blot 2",93.47%
same,"TNPO1 band density, % untr control",[1]; [11],65.77%
same,"TNPO1 band density, % untr control",[1]; [12],83.87%
same,"ImpB band density, Pellet",[2]; Blot 1,818.3 % control
same,"ImpB band density, Supernatant",[2]; Blot 1,89.3 % control
same,"ImpB band density, Pellet",[2]; Blot 2,483.8 % control
same,"ImpB band density, Supernatant",[2]; Blot 2,77.0 % control
same,"ImpB band density, % untr control","[2]; Pellet, RNA, blot 1",176.94%
same,"ImpB band density, % untr control","[2]; Pellet, RNA, blot 2",208.79%
same,"ImpB band density, % untr control",[2]; [9],231.77%
same,"ImpB band density, % untr control",[2]; [10],273.94%
same,"ImpB band density, % untr control","[2]; Supernatant, RNA, blot 1",95.64%
same,"ImpB band density, % untr control","[2]; Supernatant, RNA, blot 2",121.54%
same,"ImpB band density, % untr control",[2]; [11],76.39%
same,"ImpB band density, % untr control",[2]; [12],117.49%
same,"RanGAP1 band density, Pellet",[3]; Blot 1,413.6 % control
same,"RanGAP1 band density, Supernatant",[3]; Blot 1,76.6 % control
same,"RanGAP1 band density, Pellet",[3]; Blot 2,481.7 % control
same,"RanGAP1 band density, Supernatant",[3]; Blot 2,84.2 % control
same,"RanGAP1 band density, % untr control","[3]; Pellet, RNA, blot 1",309.83%
same,"RanGAP1 band density, % untr control","[3]; Pellet, RNA, blot 2",267.45%
same,"RanGAP1 band density, % untr control",[3]; [9],288.68%
same,"RanGAP1 band density, % untr control",[3]; [10],278.19%
same,"RanGAP1 band density, % untr control","[3]; Supernatant, RNA, blot 1",115.69%
same,"RanGAP1 band density, % untr control","[3]; Supernatant, RNA, blot 2",95.48%
same,"RanGAP1 band density, % untr control",[3]; [11],62.58%
same,"RanGAP1 band density, % untr control",[3]; [12],76.25%
same,"TDP43 band density, % untr control","[4]; Pellet, RNA, blot 1",155.77%
same,"TDP43 band density, % untr control","[4]; Pellet, RNA, blot 2",157.99%
same,"TDP43 band density, % untr control",[4]; [9],180.16%
same,"TDP43 band density, % untr control",[4]; [10],165.43%
same,"TDP43 band density, % untr control","[4]; Supernatant, RNA, blot 1",71.23%
same,"TDP43 band density, % untr control","[4]; Supernatant, RNA, blot 2",80.31%
same,"TDP43 band density, % untr control",[4]; [11],41.29%
same,"TDP43 band density, % untr control",[4]; [12],36.83%
same,"TDP43 band density, % control","[4]; Pellet, Blot 1",424.3 % control
same,"TDP43 band density, % control","[4]; Pellet, Blot 2",185.6 % control
same,"TDP43 band density, % control","[4]; Supernatant, Blot 1",54.8 % control
same,"TDP43 band density, % control","[4]; Supernatant, Blot 2",45.9 % control
same,"Matrin-3 band density, % control","[5]; Pellet, Blot 1",407.8 % control
same,"Matrin-3 band density, % control","[5]; Pellet, Blot 2",159.1 % control
same,"Matrin-3 band density, % control","[5]; Supernatant, Blot 1",25.9 % control
same,"Matrin-3 band density, % control","[5]; Supernatant, Blot 2",42.9 % control
same,"Rps6 band density, % untr control","[6]; Pellet, RNA, blot 1",396.86%
same,"Rps6 band density, % untr control","[6]; Pellet, RNA, blot 2",295.15%
same,"Rps6 band density, % untr control",[6]; [9],455.82%
same,"Rps6 band density, % untr control",[6]; [10],297.04%
same,"Rps6 band density, % untr control","[6]; Supernatant, RNA, blot 1",8.34%
same,"Rps6 band density, % untr control","[6]; Supernatant, RNA, blot 2",9.83%
same,"Rps6 band density, % untr control",[6]; [11],2.35%
same,"Rps6 band density, % untr control",[6]; [12],1.09%
same,"RPS6 band density, % control","[6]; Pellet, Blot 1",219.0 % control
same,"RPS6 band density, % control","[6]; Pellet, Blot 2",275.0 % control
same,"RPS6 band density, % control","[6]; Supernatant, Blot 1",3.7 % control
same,"RPS6 band density, % control","[6]; Supernatant, Blot 2",6.4 % control
same,Depletion of NCT proteins from the supernatant,[7],not substantially depleted from the supernatant
same,"Rps25 band density, % untr control","[8]; Pellet, RNA, blot 1",302.37%
same,"Rps25 band density, % untr control","[8]; Pellet, RNA, blot 2",467.96%
same,"Rps25 band density, % untr control",[8]; [9],306.71%
same,"Rps25 band density, % untr control",[8]; [10],525.42%
same,"Rps25 band density, % untr control","[8]; Supernatant, RNA, blot 1",12.19%
same,"Rps25 band density, % untr control","[8]; Supernatant, RNA, blot 2",16.30%
same,"Rps25 band density, % untr control",[8]; [11],0.89%
same,"Rps25 band density, % untr control",[8]; [12],1.06%
